Drawing on ChEMBL document CHEMBL2331255, “Carbonic anhydrase inhibitors: benzenesulfonamides incorporating cyanoacrylamide moieties are low nanomolar/subnanomolar inhibitors of the tumor-associated isoforms IX and XII” (Bioorg Med Chem, 2013), this text covers Ki for 20 compounds.

One experiment concerns the target Carbonic anhydrase 9 (Homo sapiens, UniProt Q16790). In words: Inhibition of human carbonic anhydrase 9 preincubated for 15 mins by CO2 hydration stopped-flow assay.
For the next experiment, the target named is Carbonic anhydrase 12 (Homo sapiens, UniProt O43570). Put plainly: Inhibition of human carbonic anhydrase 12 preincubated for 15 mins by CO2 hydration stopped-flow assay.
The next experiment concerns the target Carbonic anhydrase 2 (Homo sapiens, UniProt P00918). Put plainly: Inhibition of human carbonic anhydrase 2 preincubated for 15 mins by CO2 hydration stopped-flow assay.
The next experiment has as its target Carbonic anhydrase 1 (Homo sapiens, UniProt P00915). In words: Inhibition of human carbonic anhydrase 1 preincubated for 15 mins by CO2 hydration stopped-flow assay.

Molecules are shown by their SMILES.

Carbonic anhydrase 1, sequence (P00915 whole entry): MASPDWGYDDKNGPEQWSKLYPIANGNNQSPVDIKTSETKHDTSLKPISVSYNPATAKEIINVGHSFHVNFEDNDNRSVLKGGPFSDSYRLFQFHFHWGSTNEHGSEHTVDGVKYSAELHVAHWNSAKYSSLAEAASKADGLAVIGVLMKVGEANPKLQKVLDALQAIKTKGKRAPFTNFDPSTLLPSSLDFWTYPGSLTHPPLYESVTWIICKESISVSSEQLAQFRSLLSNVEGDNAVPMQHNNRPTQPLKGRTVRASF
Carbonic anhydrase 12, sequence (O43570 whole entry): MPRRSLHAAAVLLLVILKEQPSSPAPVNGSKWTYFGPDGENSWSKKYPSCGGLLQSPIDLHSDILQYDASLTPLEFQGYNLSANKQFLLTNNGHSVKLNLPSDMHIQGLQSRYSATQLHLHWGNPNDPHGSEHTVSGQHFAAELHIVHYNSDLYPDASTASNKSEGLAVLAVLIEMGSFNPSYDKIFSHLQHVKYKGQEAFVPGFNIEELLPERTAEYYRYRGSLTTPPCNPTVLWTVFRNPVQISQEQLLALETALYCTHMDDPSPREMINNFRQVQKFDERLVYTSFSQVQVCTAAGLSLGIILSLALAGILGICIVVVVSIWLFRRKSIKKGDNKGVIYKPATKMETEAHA

One may read the Ki as a measure of affinity in units of concentration, obtained from inhibition or displacement. High values mean a looser hold on the target, low ones a stronger hold on the target. At Carbonic anhydrase 9, `N#C/C(=C\c1ccc([N+](=O)[O-])cc1)C(=O)Nc1ccc(S(N)(=O)=O)cc1` gave a Ki of 0.93 nM.
Same read-out and setting: for `CC(=O)C1=NN(c2ccccc2)/C(=C(\C#N)C(=O)Nc2ccc(S(N)(=O)=O)cc2)S1` the value was 0.33 nM; for `COc1cc(/C=C(\C#N)C(=O)Nc2ccc(S(N)(=O)=O)cc2)cc(OC)c1OC`, 20.5 nM; for `N#C/C(=C\c1ccccc1Cl)C(=O)Nc1ccc(S(N)(=O)=O)cc1`, 8.9 nM.
Same read-out and setting: for `COc1ccc(/C=C(\C#N)C(=O)Nc2ccc(S(N)(=O)=O)cc2)cc1OC` the value was 21.2 nM.
`N#C/C(=N\Nc1ccccc1)C(=O)Nc1ccc(S(N)(=O)=O)cc1` showed a Ki on Carbonic anhydrase 9 of 9.5 nM.
In the case of `N=c1oc2ccccc2cc1C(=O)Nc1ccc(S(N)(=O)=O)cc1`, the Ki on Carbonic anhydrase 9 came to 12.8 nM.
In the case of `N#C/C(=C\c1ccc(O)c(O)c1)C(=O)Nc1ccc(S(N)(=O)=O)cc1`, on Carbonic anhydrase 9, the Ki stood at 0.65 nM.
Compound `N#C/C(=C\c1cccs1)C(=O)Nc1ccc(S(N)(=O)=O)cc1` registered an inhibitory constant (Ki) at Carbonic anhydrase 9 of 3.7 nM.
Take `N#CCC(=O)Nc1ccc(S(N)(=O)=O)cc1`: on Carbonic anhydrase 9, affinity was put at a Ki of 5.2 nM.
On to `N#C/C(=C\c1ccco1)C(=O)Nc1ccc(S(N)(=O)=O)cc1`, for which the Ki stood at 6.3 nM at Carbonic anhydrase 12, 5.5 nM on Carbonic anhydrase 2, 6.1 nM on Carbonic anhydrase 1 and 4.3 nM at Carbonic anhydrase 9.
Take `CN(C)c1ccc(/C=C(\C#N)C(=O)Nc2ccc(S(N)(=O)=O)cc2)cc1`: affinity on Carbonic anhydrase 9 was put at a Ki of 3.4 nM.
With `N#C/C(C(=O)Nc1ccc(S(N)(=O)=O)cc1)=C(\S)Nc1ccccc1`, the affinity at Carbonic anhydrase 9, expressed as Ki, was 5.8 nM.
On to `COc1cc(OC)c(OC)cc1/C=C(\C#N)C(=O)Nc1ccc(S(N)(=O)=O)cc1`, for which the Ki on Carbonic anhydrase 9 came to 0.96 nM.
Turning to `COc1ccc(/C=C(\C#N)C(=O)Nc2ccc(S(N)(=O)=O)cc2)cc1`, affinity on Carbonic anhydrase 9 was put at a Ki of 0.86 nM.
The same measure, in the same setting: under `N#C/C(=C\C=C\c1ccccc1)C(=O)Nc1ccc(S(N)(=O)=O)cc1` stands 4.9 nM.
As for `COc1ccccc1/C=C(\C#N)C(=O)Nc1ccc(S(N)(=O)=O)cc1`, the Ki at Carbonic anhydrase 12 worked out at 0.6 nM; on Carbonic anhydrase 2 it was 6.9 nM; at Carbonic anhydrase 1, 71 nM; at Carbonic anhydrase 9, 32.6 nM.
With `COc1cc(/C=C(\C#N)C(=O)Nc2ccc(S(N)(=O)=O)cc2)ccc1O`, the Ki at Carbonic anhydrase 9 turned out to be 5.4 nM.
`N#C/C(=C\c1ccc(Cl)cc1Cl)C(=O)Nc1ccc(S(N)(=O)=O)cc1`: affinity at Carbonic anhydrase 9 was put at a Ki of 35.6 nM.
As for `N#C/C(=C\c1ccc(O)cc1)C(=O)Nc1ccc(S(N)(=O)=O)cc1`, the Ki at Carbonic anhydrase 9 was found to be 0.67 nM.
